Values of other authors in patent EP1112064B1, “METHOD FOR PREPARING NOVEL FENOFIBRATE GALENIC FORMULATIONS, GALENIC FORMULATIONS OBTAINED AND APPLICATIONS” (CLL Pharma, Arenas, priority 1998, dated 2000).

CC(C)OC(=O)C(C)(C)Oc1ccc(C(=O)c2ccc(Cl)cc2)cc1 [fénofibrate, 2-(4-(4-chlorobenzoyl)-phénoxy)-2-méthyl propionate d'isopropyle]
résorption intestinale (administered in sunflower oil): presque complète | demi-vie d'élimination (in vivo): ~20 heures | dose de fénofibrate administrée résorbée (one 300 mg capsule during a meal, reaches the blood as fenofibric acid): 60%
